In publication PMC11277991, “Tunicamycins from Marine-Derived Streptomyces bacillaris Inhibit MurNAc-Pentapeptide Translocase in Staphylococcus aureus” (Marine Drugs, 2024):
pIC50: −log10 of the molar value.

These compounds were tested against T1, MurNAc-pentapeptide translocase (MraY) (Staphylococcus aureus, UniProt Q2FZ93) (assay: UMP-Glo luminescence glycosyltransferase assay with purified MraY).
T1 construct: recombinant His6-tagged MraY from S. aureus ATCC6538p (ca. 36 kDa), expressed in E. coli BL21(DE3)
T1 sequence (Q2FZ93 whole entry): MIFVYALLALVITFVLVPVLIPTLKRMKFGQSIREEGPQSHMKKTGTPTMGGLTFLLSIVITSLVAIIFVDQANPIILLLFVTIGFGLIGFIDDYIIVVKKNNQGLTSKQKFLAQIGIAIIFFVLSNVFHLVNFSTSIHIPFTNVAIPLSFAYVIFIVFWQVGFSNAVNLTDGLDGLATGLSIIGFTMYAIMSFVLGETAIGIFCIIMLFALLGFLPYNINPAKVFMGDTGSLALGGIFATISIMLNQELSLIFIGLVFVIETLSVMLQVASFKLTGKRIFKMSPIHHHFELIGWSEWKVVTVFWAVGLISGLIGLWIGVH
Format: biochemical

`CC(=O)N[C@H]1[C@@H](O[C@@H]2O[C@H](C[C@@H](O)[C@H]3O[C@@H](n4ccc(=O)[nH]c4=O)[C@H](O)[C@@H]3O)[C@H](O)[C@H](O)[C@H]2NC(=O)/C=C/CCCCCCCCCCC(C)C)O[C@H](CO)[C@@H](O)[C@@H]1O` [compound 1, tunicamycin VII] and `CCC(C)CCCCCCCCCC/C=C/C(=O)N[C@H]1[C@H](O[C@H]2O[C@H](CO)[C@@H](O)[C@H](O)[C@H]2NC(C)=O)O[C@H](C[C@@H](O)[C@H]2O[C@@H](n3ccc(=O)[nH]c3=O)[C@H](O)[C@@H]2O)[C@H](O)[C@@H]1O` (stereo partly shown) [compound 3, corynetoxin U17a] are within 0.2 log units of each other in pIC50: 6.85 for the first, 7.03 for the second.

Going from `CCCCCCCCCCCCC/C=C/C(=O)N[C@H]1[C@H](O[C@H]2O[C@H](CO)[C@@H](O)[C@H](O)[C@H]2NC(C)=O)O[C@H](C[C@@H](O)[C@H]2O[C@@H](n3ccc(=O)[nH]c3=O)[C@H](O)[C@@H]2O)[C@H](O)[C@@H]1O` [compound 2, tunicamycin VIII] to `CCCCCCCCCCCCCC/C=C/C(=O)N[C@H]1[C@H](O[C@H]2O[C@H](CO)[C@@H](O)[C@H](O)[C@H]2NC(C)=O)O[C@H](C[C@@H](O)[C@H]2O[C@@H](n3ccc(=O)[nH]c3=O)[C@H](O)[C@@H]2O)[C@H](O)[C@@H]1O` [compound 4, tunicamycin IX], the pIC50 falls from 6.81 to 6.61 (0.20 log units).
